Consider 18 compounds from patent US8455475B2 (Gruenenthal GmbH, priority 2009, dated 2013).

The target in test [1] is T1, human B1R (bradykinin receptor 1) (Homo sapiens, UniProt P46663).
T1 construct: expressed in transfected cells; host or cells: CHO K1 cells
T1 sequence (P46663 1-353): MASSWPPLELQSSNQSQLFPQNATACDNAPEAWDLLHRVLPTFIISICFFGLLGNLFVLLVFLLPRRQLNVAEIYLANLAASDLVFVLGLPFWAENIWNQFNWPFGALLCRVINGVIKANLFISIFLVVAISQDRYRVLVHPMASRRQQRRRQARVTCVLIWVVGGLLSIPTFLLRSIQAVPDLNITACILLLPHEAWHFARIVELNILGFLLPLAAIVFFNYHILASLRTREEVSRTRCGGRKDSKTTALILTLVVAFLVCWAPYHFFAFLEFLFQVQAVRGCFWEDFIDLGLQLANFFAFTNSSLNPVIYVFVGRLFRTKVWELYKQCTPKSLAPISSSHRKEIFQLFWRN
The experiment in a line: FLIPR Ca2+ assay (Fluo-4) on CHO K1 cells stably transfected with the human B1R gene (hB1R cells): % inhibition at 10 μM / IC50, agonist Lys-Des-Arg9-bradykinin. In kind it is cell-based. Conditions: for inhibition at 10 µM: CHO-K1, human B1R. Summed up: (§1)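 Antagonism is measured as the drop in peak Fluo-4 Ca2+ signal when the EC80 agonist follows 10–20 min compound exposure. The single-point screen uses 10 μM; IC50 uses several concentrations. Values are given as % of maximal achievable inhibition.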

Test [2] has as its target T2, rat B1R (bradykinin receptor 1) (Rattus norvegicus, UniProt P97583).
T2 construct: expressed in transfected cells; host or cells: CHO K1 cells
T2 sequence (P97583 1-337): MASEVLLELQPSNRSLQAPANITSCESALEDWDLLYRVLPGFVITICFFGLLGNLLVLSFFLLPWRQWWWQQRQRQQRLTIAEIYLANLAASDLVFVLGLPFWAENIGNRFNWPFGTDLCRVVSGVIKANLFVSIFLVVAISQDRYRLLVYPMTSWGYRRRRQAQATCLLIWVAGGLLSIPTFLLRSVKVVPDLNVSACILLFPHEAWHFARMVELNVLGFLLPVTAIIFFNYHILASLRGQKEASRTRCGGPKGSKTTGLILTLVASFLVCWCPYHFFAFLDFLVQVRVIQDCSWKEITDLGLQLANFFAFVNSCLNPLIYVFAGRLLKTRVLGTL
The experiment in a line: FLIPR Ca2+ assay (Fluo-4) on CHO K1 cells stably transfected with the B1R gene of the rat (rB1R cells): % inhibition at 10 μM / IC50, agonist Des-Arg9-bradykinin. In kind it is cell-based. Conditions: for inhibition at 10 µM: CHO-K1, rat B1R. Summed up: as §1

For `O=C(NC1CCc2ccc(C(=O)N3CCC4(CC3)CCN(c3ccncc3)C4)cc21)c1ccccc1Cl` (stereo not drawn) [IND_CC-271, 2-Chloro-N-[6-(2-pyridin-4-yl-2,8-diazaspiro[4.5]decane-8-carbonyl)-2,3-dihydro-1H-inden-1-yl]-benzamide], in test [1], the “% Inhibition (human B1R) at 10 μM” value came out at 100%. Moreover, in test [2], the “% Inhibition (rat B1R) at 10 μM” value is 106%.

One may read the inhibition as the drop in the measured response relative to a control, in per cent. For `Cc1ccccc1CC(=O)N[C@@H]1CCc2ccc(C(=O)N3CCC4(CCN(c5ccncc5)CC4)C3)cc21` [Example H-154, 2-(o-Tolyl)-N-[(1R)-6-(8-pyridin-4-yl-3,8-diazaspiro[4.5]decane-3-carbonyl)-2,3-dihydro-1H-inden-1-yl]-acetamide], the values for the inhibition at 10 µM in test [1] and in test [2] were 99% and 105%, respectively.

As to `CN(C(=O)c1ccccc1Cl)C1CCc2ccc(C(=O)N3CCC4(CC3)CCN(c3ccncc3)CC4)cc21` (stereo not drawn) [IND_CC-272, 2-Chloro-N-methyl-N-[6-(9-pyridin-4-yl-3,9-diazaspiro[5.5]undecane-3-carbonyl)-2,3-dihydro-1H-inden-1-yl]-benzamide], in test [1] (10 µM), the “% Inhibition (human B1R) at 10 μM” value was 99%. For the same compound, in test [2], the “% Inhibition (rat B1R) at 10 μM” value is recorded as 107%.

Take `COc1ccc(S(=O)(=O)N[C@@H]2CCc3ccc(C(=O)N4CCC5(CCN(c6ccncc6)CC5)C4)cc32)c(C(F)(F)F)c1` [Example H-144, 4-Methoxy-N-[(1R)-6-(8-pyridin-4-yl-3,8-diazaspiro[4.5]decane-3-carbonyl)-2,3-dihydro-1H-inden-1-yl]-2-(trifluoromethyl)-benzenesulfonic acid amide]: the inhibition at 10 µM in test [1] was determined as 99%; in test [2], 104%.

For the compound `O=C(c1ccc2c(c1)CC[C@H]2NS(=O)(=O)c1ccccc1Cl)N1CCC2(CCN(c3ccncc3)CC2)C1` [Example H-173, 2-Chloro-N-[(1R)-5-(8-pyridin-4-yl-3,8-diazaspiro[4.5]decane-3-carbonyl)-2,3-dihydro-1H-inden-1-yl]-benzenesulfonic acid amide], the inhibition at 10 µM was 100% in test [1] and 89% in test [2].

For the compound `Cc1ccc(C(=O)N(C)C2CCc3ccc(C(=O)N4CCC5(CC4)CCN(c4ccncc4)CC5)cc32)c(F)c1` (stereo not drawn) [IND_CC-304, 2-Fluoro-N,4-dimethyl-N-[6-(9-pyridin-4-yl-3,9-diazaspiro[5.5]undecane-3-carbonyl)-2,3-dihydro-1H-inden-1-yl]-benzamide], the inhibition at 10 µM in test [1] came out at 49%; in test [2], 104%.

Regarding `CC1(C)Cc2ccc(C(=O)N3CCC4(CC3)CCN(c3ccncc3)CC4)cc2C1NC(=O)c1cc(F)ccc1Cl` (stereo not drawn) [IND_CC-223, 2-Chloro-N-[2,2-dimethyl-6-(9-pyridin-4-yl-3,9-diazaspiro[5.5]undecane-3-carbonyl)-1,3-dihydro-inden-1-yl]-5-fluoro-benzamide], the inhibition at 10 µM amounted to 97% in test [1] and 105% in test [2].

Take `O=C(/C=C/c1ccccc1Cl)NC1CCc2ccc(C(=O)N3CCC4(CCN(c5ccncc5)CC4)C3)cc21` (stereo not drawn) [Ind_CC-083, (E)-3-(2-chlorophenyl)-N-[6-(8-pyridin-4-yl-2,8-diazaspiro[4.5]decane-2-carbonyl)-2,3-dihydro-1H-inden-1-yl]-acrylamide]: the results for the inhibition at 10 µM in test [1] and in test [2] were 90% and 85%, respectively.

For the compound `O=C(NC1CCc2ccc(C(=O)N3CCC4(CC3)CCN(c3ccncc3)CC4)cc21)c1cc(F)ccc1Cl` (stereo not drawn) [IND_CC-220, 2-Chloro-5-fluoro-N-[6-(9-pyridin-4-yl-3,9-diazaspiro[5.5]undecane-3-carbonyl)-2,3-dihydro-1H-inden-1-yl]-benzamide], the inhibition at 10 µM in test [1] worked out at 100%; in test [2], 104%.

With `O=C(NC1CCc2ccc(C(=O)N3CCC4(CC3)CCN(c3ccncc3)CC4)cc21)c1cccc(C(F)(F)F)c1Cl` (stereo not drawn) [IND_CC-232, 2-Chloro-N-[6-(9-pyridin-4-yl-3,9-diazaspiro[5.5]undecane-3-carbonyl)-2,3-dihydro-1H-inden-1-yl]-3-(trifluoromethyl)-benzamide], the inhibition at 10 µM is 96% in test [1] and 101% in test [2].

With `O=C(c1ccc2c(c1)C(N1Cc3cccc(Cl)c3C1=O)CC2)N1CCC2(CC1)CCN(c1ccncc1)CC2` (stereo not drawn) [Example H-01, 7-chloro-2-[6-(9-pyridin-4-yl-3,9-diazaspiro[5.5]undecane-3-carbonyl)-2,3-dihydro-1H-indan-1-yl]-2,3-dihydro-isoindol-1-one], the inhibition at 10 µM in test [1] is 100%; in test [2], 97%.

On to `O=C(N[C@@H]1CCc2ccc(C(=O)N3CCCC4(CCN(c5ccncc5)CC4)C3)cc21)c1ccccc1Cl` [Example H-54, 2-Chloro-N-[(1R)-6-(9-pyridin-4-yl-2,9-diazaspiro[5.5]undecane-2-carbonyl)-2,3-dihydro-1H-inden-1-yl]-benzamide], for which the inhibition at 10 µM in test [1] was found to be 98%; in test [2] it was 102%.

Regarding `CN(C(=O)c1ccccc1Cl)C1CCc2ccc(C(=O)N3CCC4(CC3)CCN(c3ccncc3)C4)cc21` (stereo not drawn) [Ind_CC-112, 2-chloro-N-methyl-N-[6-(2-pyridin-4-yl-2,8-diazaspiro[4.5]decane-8-carbonyl)-2,3-dihydro-1H-inden-1-yl]-benzamide], the inhibition at 10 µM turned out to be 100% in test [1] and 104% in test [2].

Regarding `Cc1cccc(C)c1C(=O)NC1c2cc(C(=O)N3CCC4(CC3)CCN(c3ccncc3)CC4)ccc2CC1(C)C` (stereo not drawn) [IND_CC-308, N-[2,2-Dimethyl-6-(9-pyridin-4-yl-3,9-diazaspiro[5.5]undecane-3-carbonyl)-1,3-dihydro-inden-1-yl]-2,6-dimethyl-benzamide], the values for the inhibition at 10 µM in test [1] and in test [2] were 97% and 106%, respectively.

As for `O=C(Cc1ccccc1Cl)NC1CCc2ccc(C(=O)N3CCC4(CC3)CCN(c3ccncc3)C4)cc21` (stereo not drawn) [Ind_CC-045, 2-(2-chlorophenyl)-N-[6-(2-pyridin-4-yl-2,8-diazaspiro[4.5]decane-8-carbonyl)-2,3-dihydro-1H-inden-1-yl]-acetamide], the inhibition at 10 µM in test [1] is 100%; in test [2], 101%.

As to `CN(C(=O)c1cc(C(F)(F)F)ccc1Cl)C1CCc2ccc(C(=O)N3CCC4(CC3)CCN(c3ccncc3)CC4)cc21` (stereo not drawn) [IND_CC-202, 2-Chloro-N-methyl-N-[6-(9-pyridin-4-yl-3,9-diazaspiro[5.5]undecane-3-carbonyl)-2,3-dihydro-1H-inden-1-yl]-5-(trifluoromethyl)-benzamide], the figures for the inhibition at 10 µM in test [1] and in test [2] were 86% and 103%, respectively.

On to `COc1cc(C)c(S(=O)(=O)N[C@@H]2CCCc3ccc(C(=O)N4CCC5(CC4)CCN(c4ccncc4)CC5)cc32)c(C)c1` [Example H-17, 4-methoxy-2,6-dimethyl-N-[(1R)-7-(9-pyridin-4-yl-3,9-diazaspiro[5.5]undecane-3-carbonyl)-1,2,3,4-tetrahydro-naphthalen-1-yl]-benzenesulfonic acid amide], for which the figures for the inhibition at 10 µM in test [1] and in test [2] were 98% and 102%, respectively.

Take `Cc1cccc(C)c1C(=O)NC1CCc2ccc(C(=O)N3CCC4(CC3)CCN(c3ccncc3)CC4)cc21` (stereo not drawn) [IND_CC-294, 2,6-Dimethyl-N-[6-(9-pyridin-4-yl-3,9-diazaspiro[5.5]undecane-3-carbonyl)-2,3-dihydro-1H-inden-1-yl]-benzamide]: the inhibition at 10 µM in test [1] came out at 99%; in test [2], 105%.
